Measurements as given in patent publication US10203327B2, “Organic compounds” (Novartis AG, priority 2013, dated 2019).
Where a SMILES comes first, the peptide text is derived from it.

Tests used:
[1] = tested on: subjects treated for psoriasis; conditions: after 4 weeks; cited from earlier work
human GPR15 [2] = molecular target: T1, human GPR15 (Homo sapiens, UniProt P49685); assay: Aequorin assay on human GPR15 stably expressed in recombinant cells; assay type: cell-based
T1 construct: expressed in transfected cells; host or cells: CHO-Aeq (with or without Galpha16), vector pEFIN3
T1 sequence (P49685 1-360): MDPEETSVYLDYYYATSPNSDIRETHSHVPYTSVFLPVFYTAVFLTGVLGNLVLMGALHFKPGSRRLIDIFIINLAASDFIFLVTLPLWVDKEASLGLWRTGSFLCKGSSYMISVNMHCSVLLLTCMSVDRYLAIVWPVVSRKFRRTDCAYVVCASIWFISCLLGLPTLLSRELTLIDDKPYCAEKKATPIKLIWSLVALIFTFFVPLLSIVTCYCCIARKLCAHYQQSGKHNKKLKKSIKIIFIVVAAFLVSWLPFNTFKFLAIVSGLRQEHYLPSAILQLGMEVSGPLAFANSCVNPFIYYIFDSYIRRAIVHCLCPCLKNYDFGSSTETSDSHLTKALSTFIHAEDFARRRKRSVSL
Excerpt: (§1) Throughout this specification, the term “Aequorin assay” refers to methods for performing high throughput functional screening of GPCRs. Said methods employ recombinant cell lines stably transfected with plasmids encoding apoaequorin, a GPCR of interest and if necessary, a recombinant G protein to redirect the coupling of the GPCR toward calcium signaling. After clonal selection, the best clones are selected on the basis of pharmacological characterization, high signal to background ratio and stability of expression. This method has been developed by Euroscreen SA, 47 Rue Adrienne Bolland, 6041 Gosselies, Belgium.
(§2) Plasmids encoding human and mouse GPR15 were stably transfected in CHO, 1321 N1 and HEK293 cells expressing the apoaequorin (CHO-Aeq, 1321-N1-Aeq and HEK-Aeq). GPR15 mRNA sequence integrities were checked using RT-PCR at T0 and T30 culture times in CHO cells.
An hGPR15 CHO-Gα16Aeq cell line was used for the Aequorin screening of Euroscreen proprietary libraries of natural ligands and tissue extracts collection. Specific activation of GPR15 over more than 20 other orphan GPCRs was identified in fractions from a colon aqueous extract.
(§3) QKPQLWVVPGALPQV peptide (SEQ ID NO: 2), corresponding to a putative tryptic C-term fragment (43-57) of the porcine peptide, was first synthesised for GPR15 evaluation.
(§4) Both peptides (i.e., those produced via CHO production and in vitro production in the agglutinin wheat germ extract system) were tested for GPR15 activation using Aequorin dose response curves.

human GPR23 = molecular target: T2, human GPR23 (Homo sapiens, UniProt Q99677); assay: Aequorin assay on unrelated receptor hGPR23 (selectivity); assay type: cell-based; conditions: CHO-Aeq cells expressing hGPR23
T2 construct: expressed in transfected cells; host or cells: CHO-Aeq Galpha16
Excerpt: as §1, §3, §4

mouse GPR15 = molecular target: T3, mouse GPR15 (Mus musculus, UniProt Q0VDU3); assay: Aequorin assay on mouse GPR15 stably expressed in CHO-Aeq cells; assay type: cell-based; conditions: CHO and IV produced polypeptide
T3 construct: expressed in transfected cells; host or cells: CHO-Aeq (with or without Galpha16), vector pEFIN5
T3 sequence (Q0VDU3 1-360): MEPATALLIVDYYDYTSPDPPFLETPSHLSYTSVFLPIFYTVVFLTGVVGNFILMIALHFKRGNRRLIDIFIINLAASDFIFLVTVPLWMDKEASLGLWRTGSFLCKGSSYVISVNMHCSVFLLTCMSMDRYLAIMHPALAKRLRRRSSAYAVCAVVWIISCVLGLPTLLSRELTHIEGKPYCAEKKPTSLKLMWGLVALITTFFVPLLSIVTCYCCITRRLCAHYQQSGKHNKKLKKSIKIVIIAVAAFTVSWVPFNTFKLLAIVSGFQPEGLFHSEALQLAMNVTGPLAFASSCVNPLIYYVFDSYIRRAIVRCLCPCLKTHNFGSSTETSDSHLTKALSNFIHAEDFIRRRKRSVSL
Excerpt: as §1, §2, §3

human GPRC5C = molecular target: T4, human GPRC5C (Homo sapiens, UniProt Q9NQ84); assay: Aequorin assay on unrelated receptor GPRC5C (selectivity); assay type: cell-based; conditions: CHO-Aeq cells expressing GPRC5C
T4 construct: expressed in transfected cells; host or cells: CHO-Aeq Galpha16

human GPR15 [3] = molecular target: T1, human GPR15; assay: cAMP HTRF assay on CHO and HEK cells stably expressing hGPR15; assay type: cell-based
SW48 cells [4] = assay: Intracellular calcium in SW48 colon cancer cells; assay type: cell-based, human; conditions: after priming
SW48 cells [5] = assay: Forskolin-induced cAMP in SW48 colon cancer cells; assay type: cell-based, human; conditions: pertussis toxin sensitive
[6] = tested on: human neonatal dermal fibroblasts; assay: IP-10 (CXCL10) release from human neonatal dermal fibroblasts; assay type: cell-based; conditions: GPR15-independent
Excerpt: GPR15L action is also mediated by a GPR15-independent mechanism in human neonatal dermal fibroblasts. […] Interferon gamma-induced protein 10 (IP-10), also known as C—X—C motif chemokine 10 (CXCL10), is secreted by monocytes, endothelial cells, and fibroblasts in response to IFN-γ. CXCL10 binds to the cell surface chemokine receptor CXCR3 and is implicated in such processes as chemoattraction for monocytes/macrophages, T cells, NK cells, and dendritic cells, promotion of T cell adhesion to endothelial cells, antitumor activity, and inhibition of bone marrow colony formation and angiogenesis.

T2 sequence (Q99677 whole entry): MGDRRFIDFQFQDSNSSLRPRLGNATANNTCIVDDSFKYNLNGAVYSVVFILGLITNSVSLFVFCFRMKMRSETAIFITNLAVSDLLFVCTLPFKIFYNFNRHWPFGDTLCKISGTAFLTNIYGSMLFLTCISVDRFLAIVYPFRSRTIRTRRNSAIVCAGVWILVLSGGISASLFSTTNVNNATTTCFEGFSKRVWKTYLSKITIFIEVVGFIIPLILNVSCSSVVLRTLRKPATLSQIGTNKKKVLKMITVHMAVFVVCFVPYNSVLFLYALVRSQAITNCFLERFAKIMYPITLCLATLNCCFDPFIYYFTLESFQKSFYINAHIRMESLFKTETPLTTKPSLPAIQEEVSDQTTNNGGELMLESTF
T4 sequence (Q9NQ84 24-441): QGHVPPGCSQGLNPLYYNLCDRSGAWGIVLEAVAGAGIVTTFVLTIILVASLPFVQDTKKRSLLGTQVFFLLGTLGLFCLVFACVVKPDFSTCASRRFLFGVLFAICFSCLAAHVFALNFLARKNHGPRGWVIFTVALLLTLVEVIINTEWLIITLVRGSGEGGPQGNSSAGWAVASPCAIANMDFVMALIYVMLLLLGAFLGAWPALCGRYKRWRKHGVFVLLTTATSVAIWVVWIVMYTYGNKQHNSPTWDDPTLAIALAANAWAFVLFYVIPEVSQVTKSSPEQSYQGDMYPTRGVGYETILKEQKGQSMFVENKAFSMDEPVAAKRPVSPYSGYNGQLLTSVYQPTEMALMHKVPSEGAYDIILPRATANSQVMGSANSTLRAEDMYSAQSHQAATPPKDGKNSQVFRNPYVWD

Compound | c10orf99 mRNA [1] | reduction in the Psoriasis Area and Severity Index (PAST) [1] [%] | activation of hGPR15 CHO cell line (human GPR15 [2]; hGPR15 CHO cell line, compared with EC50 of ~2 μM) | calcium/luminescence response of hGPR23 cells (human GPR23) | activation of hGPR15 (human GPR15 [2]; CHO-Aeq cells, ligand from CHO production or IV preparation) | activation of hGPR15 in HEK-Aeq Gα16 cells (human GPR15 [2]; stably transfected HEK-Aeq Gα16 cells) | activation of mouse GPR15 receptor (mouse GPR15) | calcium signal on GPRC5C (human GPRC5C) | activation of hGPR15 (cAMP HTRF assay) (human GPR15 [3]) | intracellular calcium levels (SW48 cells [4]) | forskolin-induced cAMP elevation (SW48 cells [5]) | IP-10 release [6]
secukinumab: fully human monoclonal antibody that selectively binds to and neutralizes IL-17A | significant decrease | 58 |  |  |  |  |  |  |  |  |  | 
CC(C)C[C@H](NC(=O)[C@H](CCC(N)=O)NC(=O)[C@@H]1CCCN1C(=O)[C@H](CCCCN)NC(=O)[C@@H](N)CCC(N)=O)C(=O)N[C@@H](Cc1c[nH]c2ccccc12)C(=O)N[C@H](C(=O)N[C@H](C(=O)N1CCC[C@H]1C(=O)NCC(=O)N[C@@H](C)C(=O)N[C@@H](CC(C)C)C(=O)N1CCC[C@H]1C(=O)N[C@@H](CCC(N)=O)C(=O)N[C@H](C(=O)O)C(C)C)C(C)C)C(C)C [QKPQLWVVPGALPQV peptide, QKPQLWVVPGALPQV] (H-QKPQLWVVPGALPQV-OH; N-terminus and C-terminus assumed) |  |  | same affinity | failed in responding |  |  |  |  |  |  |  | 
KRRPAKAWSGRRTRLCCHRVPSPNSTNLKGHHVRLCKPCK LEPEPRLWVVPGALPQV (KRRPAKAWSGRRTRLCCHRVPSPNSTNLKGHHVRLCKPCKLEPEPRLWVVPGALPQV) [c10orf99, made by CHO production, in vitro translation or synthesis] |  |  |  | failed to induce any calcium signal | specifically activated | confirmed | Activation of mouse GPR15 receptor was observed | failed to induce any calcium signal | activation | dose response dependent increase in intracellular calcium levels | pertussis toxin sensitive decrease in forskolin-induced cAMP elevation | induces IP-10-release
